Laboratory results from the NIST ThermoML archive (doi:10.1016/j.jct.2011.11.027).
± gives the expanded uncertainty stated by the source.

Experiments:
[1] = 298.15 K; 101.33 kPa; Liquid; Vibrating tube method
[2] = refractive index (Na D-line) (dimensionless); details: 298.15 K; 101.33 kPa; Liquid; Standard Abbe refractometry
[3] = wn = mass fraction of the nth substance listed; details: 298.15 K, 101 kPa, Liquid, Vibrating tube method

Question: Which results are given for `CCCC[N+]1(C)CCCC1.O=S(=O)([O-])C(F)(F)F` [1-butyl-1-methylpyrrolidinium trifluoromethanesulfonate]?
Answer: mass density [1]: 1252.71 ± 0.45 kg/m3; refractive index [2]: 1.43287 ± 0.00042

Question: With `CCCCCCC` [heptane] + C1CCCCC1 as the compound, how does the mass density ([3]; w1 = 1) read?
Answer: The mass density was 679.57 ± 0.18 kg/m3.

Question: For `C1CCCCC1` [cyclohexane] + CCCCCCC, which mass density ([3]; w2 = 0) is on record?
Answer: The mass density was 773.88 ± 0.13 kg/m3.

Question: What about the mass density ([3]; w2 = 0.0503) of the same compound?
Answer: Its mass density is 766.95 ± 0.14 kg/m3.

Question: What about the mass density ([3]; w2 = 0.0991) of the same compound?
Answer: The mass density was 760.53 ± 0.14 kg/m3.

Question: And the mass density ([3]; w2 = 0.2021)?
Answer: The mass density was 748.16 ± 0.14 kg/m3.

Question: What about the mass density ([3]; w2 = 0.3118) of the same compound?
Answer: Its mass density is 735.69 ± 0.15 kg/m3.

Question: What about the mass density ([3]; w2 = 0.3926) of the same compound?
Answer: Its mass density is 726.61 ± 0.15 kg/m3.

Question: And the mass density ([3]; w2 = 0.5039)?
Answer: Its mass density is 717.21 ± 0.16 kg/m3.

Question: What about the mass density ([3]; w2 = 0.666) of the same compound?
Answer: The mass density was 703.79 ± 0.16 kg/m3.

Question: And the mass density ([3]; w2 = 0.7062)?
Answer: Its mass density is 700.61 ± 0.17 kg/m3.

Question: What about the mass density ([3]; w2 = 0.8061) of the same compound?
Answer: The mass density was 692.71 ± 0.17 kg/m3.

Question: What about the mass density ([3]; w2 = 0.9061) of the same compound?
Answer: The mass density was 685.62 ± 0.18 kg/m3.

Question: And the mass density ([3]; w2 = 0.9539)?
Answer: The mass density was 682.6 ± 0.18 kg/m3.

Question: Which mass density [1] does the source give for `CCCC[N+]1(C)CCCC1.O=S(=O)([N-]S(=O)(=O)C(F)(F)F)C(F)(F)F` here?
Answer: Its mass density is 1394.66 ± 0.58 kg/m3.

Question: And the refractive index [2]?
Answer: The refractive index was 1.42302 ± 0.00042.
